This is an account of results in patent US8633204B2 (Pfizer Inc., priority 2006, dated 2014).

For assay [1], the system named is PI3-K in BT20 cells (phosphorylation of AKT at serine 473). The experiment in a line: PI3-Kα Cellular Assay (AKT Ser473 phosphorylation ELISA in BT20 cells). In kind it is cell-based, human. The conditions noted are these: Homo sapiens, BT-20, pAKT Ser473 ELISA, 1 hour incubation. In short, it runs like this: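 Cells seeded overnight in 0.5% FBS, then exposed 1 h at 37 °C to an 11-concentration 1:3 dilution series, in duplicate.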
For orientation: An ELISA detects its analyte on a solid surface through an enzyme-linked reagent.

The test system of the next assay is U87MG tumor model. In words: Mouse xenograft efficacy study, U87MG. Format: in vivo. The note with it: for Growth Inhibition (%): U87 MG glioma xenograft. The protocol:
The in vivo efficacy of 2-amino-8-(trans-4-hydroxycyclohexyl)-6-(6-methoxypyridin-3-yl)-4-methylpyrido[2,3-d]pyrimidin-7(8H)-one (Compound 152) disclosed in Example 53 was examined in s.c. xenograft model. Human tumor cell lines PC3 (PTEN deletion)), U87MG (PTEN deletion) and SKOV3 (PI3Kα […]) were chosen for in vivo efficacy studies due to their different genetic background and relatively high levels of phospho AKT S473 signal. Cells were implanted in the hind flank of athymic mice and tumors grew in size to 100-200 mm^3 before daily oral treatment with Compound 152 was initiated. […] For all models tested 1 mg/kg was an efficacious dose.
Animal Care: Female and male athymic mice (6-8 weeks old) weighing ˜22 g were obtained from Charles River Laboratory. Animal were housed on a 12 h light/dark cycle in the Pfizer vivarium and all procedures are conducted in accordance with the Pfizer Institutional Animal Care and Use Committee (IACUC). Animals are provided free access to rodent chow and water ad libitum and maintained under clean room conditions. Prior to study start animals acclimate for at least 48 h.
Cell lines: All cell lines were cultured at 37° C. in humidified 5% CO2 incubator. U87 MG glioblastoma tumor cell line was obtained from American Type Culture Collection (ATCC) and cultured with DMEM supplemented with 15% FBS and 2 mM glutamine. PC3 prostate cancer cell line were obtained from National Cancer Institute and cultured in RPMI media supplemented with 10% FBS and 2 mM glutamine. SKOV3 ovarian cancer cells were obtained from ATCC and passaged multiple times through mice, and cultured in McCoy's 5A media supplemented with 10% FBS and 2 mM glutamine. All cell lines were tested by University of Missouri Research Animal Diagnostic Laboratory for known species of murine viruses and mycoplasma contamination.
Mouse Xenograft Models: U87MG (glioblastoma), PC3 (prostate cancer) and SKOV3 (ovarian cancer) cell lines in culture were harvested by trypsinisation. Briefly, 2.5−4×10^6 tumor cells were suspended in the medium used to culture each cell line without serum and implanted sub-cutaneously (s.c) into the hind flank region of mice on day 0. Daily treatment with Compound 152, formulated in 10% ethanol, 40% PEG and 50% sodium citrate buffer or vehicle alone commenced 10-14 d after implantation when average tumors were 100-200 mm^3 in size. Tumors were measured twice weekly and tumor volume was calculated as a product of (length×width^2)/2. Studies were typically terminated when the tumor in the vehicle treated animals reached a size of >1500 mm3 or when judged to adversely affect the well being of the animal. […] Where applicable, percent tumor regression for each group was calculated as 100×(tumor volumeinitial−tumor volumefinal)/(tumor volumeinitial). A cohort of 12 animals was used for each dose group for efficacy studies. A representative cohort of animals were sacrificed at the times indicated, tumors resected, and a blood sample taken from the cardiac left ventricle and immediately placed in a vial primed with heparin sulfate. Typically one half of the tumor was fixed in 10% neutral buffered formalin, paraffin embedded, and sectioned for immunohistochemistry. The other half was frozen in liquid nitrogen and later processed to generate cell lysates for target modulation studies.

The mark [2] stands for this setting: U87MG tumor model, daily oral treatment.

“Also recorded” adds a separate entry of the source.

One may read the IC50 as the point on the concentration scale where inhibition reaches its midpoint. The low end stands for greater potency, the high end for weaker potency. As for `COc1ccc(-c2cc3c(C)nc(N)nc3n([C@H]3CC[C@H](O)CC3)c2=O)cn1` [Compound 152, 2-amino-8-(trans-4-hydroxycyclohexyl)-6-(6-methoxypyridin-3-yl)-4-methylpyrido[2,3-d]pyrimidin-7(8H)-one], it took 3.6 nM to reach half-maximal inhibition in assay [1] (IC50). The “Growth Inhibition (%)” value in the assay with U87MG tumor model (0.1 mg/kg/day oral) is given as 18%; in the assay on U87MG tumor model (0.3 mg/kg/day oral), 56%; with U87MG tumor model (1.0 mg/kg/day oral), 76%. Further, the anti-tumor efficacy entry in the assay with U87MG tumor model (setting [2]) is reported as “dose-dependent anti-tumor efficacy; also recorded: growth inhibition”. The molecule further showed an efficacious dose in the assay with U87MG tumor model (setting [2]) of 1 mg/kg.
